# Reference: patent publication US11085081B2, “Methods and materials for determining pain sensitivity and predicting and treating related disorders” (The University of North Carolina at Chapel Hill, priority 2004, dated 2021)
# Entries after “also recorded” stand apart in the source; their conditions may differ.
# How the values were obtained:
# [1] = tested on: 3T3-L1 adipocytes; assay: In vitro cytokine measurement (real time PCR of transcripts) in adipocytes; type: cell-based, mouse; settings: salmeterol 0.5 μM or CL316243 0.3 μM, 1 hr treatment; normalized to GAPDH
# Method: Cell growth media consisted of Dulbecco's modified Eagle's medium supplemented with 10% heat-inactivated fetal bovine serum (Sigma, St. Louis, Mo., U.S.A.) and 1× penicillin-streptomycin (Gibco, Carlsbad, Calif., U.S.A.). Cells were maintained in a humidified atmosphere of 95% air and 5% CO2.
# Two days after reaching confluence in growth media, adipogenesis was induced by incubating cells in growth media containing 0.25 μM dexamethasone (Sigma), 0.5 mM IBMX (Sigma), and 1 μM insulin (Sigma). After an additional 2 days in growth media containing 1 μM insulin, cells were grown for 6-8 days in normal growth media.
# Total RNA was isolated using the RNeasy Mini Kit (Qiagen, Valencia, Calif., U.S.A.). RNA was then treated with 2 units of DNase I (Ambion, Austin, Tex., U.S.A.) at 37° C. for 30 min. Reverse transcription was performed according to the manufacturer's instructions. Briefly, the reverse transcription reaction mixture consisted of 1 μg DNase 1-treated RNA, 500 ng oligo-dT12-18, 10 mM dNTP, 40 units RNasin (Promega, Madison, Wis., U.S.A.), and 200 units of reverse transcriptase SUPERSCRIPT III™ (Invitrogen, Carlsbad, Calif., U.S.A.). cDNA synthesis was carried out at 50° C. for 1 hr followed by inactivation of reverse transcriptase at 70° C. for 15 min.
# Mouse macrophages (RAW 264.7) and […] preadipocytes (3T3-L1) were obtained from the University of North Carolina Tissue Culture Facility. Cell maintenance and 3T3-L1 preadipocyte differentiation is described herein below. For pharmacological experiments, cells were seeded at a density of 5×10^5 cells/well in a 12-well plate (Corning). Total RNA was isolated and reverse transcribed as described in the supplementary materials. TNFα, IL-1β, and IL-6 transcripts were quantitated in quadruplicate by real time polymerase chain reaction using TAQMAN® Gene Expression Assays (Applied Biosystems, Foster City, Calif., U.S.A.) in an ABI PRISM 7000 Sequence Detection System. TNFα, IL-1β, and IL-6 transcript levels were normalized to Glyceraldehyde-3-phosphate dehydrogenase (GAPDH).
# [2] = tested on: Sprague-Dawley rats; assay: Mechanical and thermal pain behavior testing (von Frey monofilaments, radiant heat); type: in vivo, rat; settings: for paw withdrawal frequency to mechanical stimuli (25 g monofilament) / paw withdrawal latency to thermal stimuli / paw withdrawal threshold to mechanical stimuli: OR486 or RO41-0960 30 mg/kg i.p., or 3% carrageenan i.pl.; for paw withdrawal frequency to mechanical stimuli (25 g monofilament) / paw withdrawal latency to thermal stimuli / paw withdrawal threshold to mechanical stimuli / paw withdrawal frequency to mechanical stimuli, antagonist in the absence of OR486 / paw withdrawal latency to radiant heat, antagonist in the absence of OR486 / paw withdrawal threshold to mechanical stimuli, antagonist in the absence of OR486: relative to vehicle; for paw withdrawal frequency to mechanical stimuli, antagonist in the absence of OR486 / paw withdrawal latency to radiant heat, antagonist in the absence of OR486 / paw withdrawal threshold to mechanical stimuli, antagonist in the absence of OR486: i.p. 10 min prior to vehicle, phentolamine 3, propranolol 3, SCH23390 0.2, spiperone 0.2, betaxolol 1.0, ICI118,551 0.5, SR59230A 5 mg/kg; for blockade of OR486-induced hyperalgesia / heightened pain sensitivity: antagonist i.p. prior to OR486
# Method: Rats were placed in plexiglass cages positioned over an elevated perforated stainless steel platform and habituated to the environment for 15-25 min prior to testing. Paw withdrawal threshold to punctate mechanical stimulation was assessed using the up-down method of Chaplan et al. (1994). A series of nine calibrated filaments (with bending forces of 0.40, 0.68, 1.1, 2.1, 3.4, 5.7, 8.4, 13.2, and 25.0 g; Sammons Preston Rolyan, Bolingbrook, Ill., U.S.A.) with approximately equal logarithmic spacing between stimuli (Mean±SEM: 0.232±0.04 units) were presented to the hind paw in successive order, whether ascending or descending. Filaments were positioned in contact with the hind paw for a duration of 3 s or until a withdrawal response occurred. Testing was initiated with the middle hair of the series (3.4 g). In the absence of a paw withdrawal response, an incrementally stronger filament was presented and in the event of a paw withdrawal, an incrementally weaker filament was presented. After the initial response threshold was crossed, this procedure was repeated four times in order to obtain a total of six responses in the immediate vicinity of the threshold. The presence of paw withdrawal (X) and absence of withdrawal (O) was noted together with the terminal filament used in the series of six responses. The 50% g threshold=(10^[Xf+kδ])/10,000, where Xf=value (in log units) of the final von Frey hair used; k=tabular value of pattern of positive (X) and negative (O) responses, and δ=mean difference (in log units) between stimuli.
# Immediately following determination of the response threshold, paw withdrawal frequency (%) to punctate mechanical stimulation was assessed. A von Frey monofilament with a calibrated bending force of 25 g was presented to the hind paw 10 times for a duration of 1 s with an interstimulus interval of approximately 1 s. Mechanical hyperalgesia was defined as an increase in the percentage frequency ([# of paw withdrawals/10]×100) of paw withdrawal evoked by stimulation with von Frey monofilaments.
# Thermal hyperalgesia was evaluated using the radiant heat method of Hargreaves et al. (1988) in the same animals evaluated for responsiveness to von Frey monofilaments. Radiant heat was presented through the floor of a finely perforated stainless steel platform to the midplantar region of the hind paw.
# After establishing stable baseline responsiveness to mechanical and thermal stimuli, separate groups of rats received intraperitoneal injections of OR486 (30 mg/kg i.p.; N=8) or vehicle (N=8) one hour prior to behavioral testing. Responsiveness to von Frey filaments was reassessed at 30 min intervals for 2 hours. Paw withdrawal latencies to radiant heat were subsequently assessed at 2.5 hours into the testing procedure. Twenty-four hours later, baseline responsiveness to mechanical and thermal stimuli was reestablished. Animals received OR486 (30 mg/kg i.p.) or vehicle (consistent with the previous day). Thirty minutes following administration of drug or vehicle, separate groups of rats received intraplantar carrageenan (N=4 per group) or saline (N=4 per group). Responsiveness to von Frey filaments was reassessed at 30 min intervals for 2 hours following the induction of inflammation. Paw withdrawal latencies to radiant heat were subsequently assessed at 2.5 hours post carrageenan.
# Rats were handled and habituated to the testing environment 2-3 days prior to establishing baseline responsiveness. On test days, rats were placed in plexiglass cages positioned over an elevated perforated stainless steel platform and habituated to the environment for 15-20 minutes prior to testing. Paw withdrawal threshold to punctate mechanical stimulation was assessed using the up-down method of Chaplan (Chaplan et al. (1994)). […]
# [3] = tested on: TNFα, IL-1β, and IL-6; assay: In vivo plasma cytokine measurement (ELISA); design: species or system rat; settings: rats; for plasma levels of IL-1β: OR486 30 mg/kg i.p. or 3% carrageenan i.pl.; for plasma levels of IL-1β / plasma levels of IL-6 / plasma levels of TNFα: relative to vehicle; for plasma levels of IL-6 / plasma levels of TNFα: OR486 or RO41-0960 30 mg/kg i.p., or 3% carrageenan i.pl.
# Method: Blood was centrifuged and plasma separated from red blood cells. Plasma IL-6 was measured in duplicate using enzyme-linked immunosorbant assay (ELISA) kits from R&D systems (Minneapolis, Minn., U.S.A.). Plasma TNFα and IL-1β were measured in duplicate by the University of North Carolina Proteomics Ilmmunotechnologies Core using ELISA kits from Biosource (Camarillo, Calif., U.S.A.) and the National Institute for Biological Standards and Control (UK), respectively.
# [4] = OR486 30 mg/kg i.p., relative to vehicle or carrageenan in the contralateral non-inflamed paw
# [5] = i.p. 10 min prior to OR486, ICI118,551 0.5 or 5.0 mg/kg, SR59230A 5 or 50 mg/kg, betaxolol 0.1, 1.0, 10 mg/kg, relative to vehicle prior to OR486
# [6] = propranolol 3 mg/kg i.p. 10 minutes prior to OR486, relative to vehicle, phentolamine, SCH23390 or spiperone prior to OR486
# [7] = propranolol 3 mg/kg i.p. prior to OR486, relative to vehicle prior to OR486
Molecule,paw withdrawal frequency to mechanical stimuli (25 g monofilament) [2],paw withdrawal latency to thermal stimuli [2],paw withdrawal threshold to mechanical stimuli [2],plasma levels of IL-6 [3],plasma levels of TNFα [3],"paw withdrawal frequency to mechanical stimuli, antagonist in the absence of OR486 [2]","paw withdrawal latency to radiant heat, antagonist in the absence of OR486 [2]","paw withdrawal threshold to mechanical stimuli, antagonist in the absence of OR486 [2]",blockade of OR486-induced hyperalgesia / heightened pain sensitivity [2],also measured
"C[C@H](Cc1ccc2c(c1)OC(C(=O)[O-])(C(=O)[O-])O2)NC[C@H](O)c1cccc(Cl)c1.[Na+].[Na+] [CL316243, disodium (R,R)-5-(2-[{2-(3-chlorophenyl)-2-hydroxyethyl}-amino]propyl)-1,3-benzodioxole-2,2, dicarboxylate]",,,,,,,,,,increase in IL-6 mRNA levels in adipocytes [1]: 28 fold
O=[N+]([O-])c1cc(O)c(O)c([N+](=O)[O-])c1 [OR486],increased paw withdrawal frequency,decreased paw withdrawal thresholds; also recorded: decreased paw withdrawal latency,significantly decreased paw withdrawal threshold,elevated plasma levels,elevated plasma levels,,,,,"degree of mechanical and thermal hyperalgesia ([2]; OR486 30 mg/kg i.p. compared with carrageenan-induced inflammation of the hindpaw): comparable to that produced by carrageenan-induced inflammation; paw withdrawal frequency to 25 g monofilament, non-inflamed paw [2, 4]: increased paw withdrawal frequency; paw withdrawal latency to thermal stimuli, non-inflamed paw [2, 4]: decreased paw withdrawal latency; paw withdrawal threshold to mechanical stimuli, non-inflamed paw [2, 4]: decreased paw withdrawal threshold; plasma levels of IL-1β ([3]; 30 mg/kg): elevated plasma levels"
O=C(c1cc(O)c(O)c([N+](=O)[O-])c1)c1ccccc1F [RO41-0960],increased paw withdrawal frequency,decreased paw withdrawal latency,decreased paw withdrawal threshold,a trend towards elevated levels,elevated plasma levels,,,,,"mechanical and thermal pain sensitivity ([2]; RO41-0960 30 mg/kg i.p.): decreased mechanical and thermal pain sensitivity; plasma proinflammatory cytokine production ([3]; RO41-0960 30 mg/kg i.p. vs vehicle, 30 mg/kg): increased cytokine production; also recorded: increases plasma proinflammatory cytokine levels; increase in plasma levels of IL-1β ([3]; RO41-0960 30 mg/kg i.p. vs vehicle, no statistical analysis (sample loss)): 4.5 fold"
CC(C)NCC(O)COc1ccc(CCOCC2CC2)cc1 (stereo not shown) [betaxolol],,,,,,failed to affect,failed to affect,failed to affect,,"paw withdrawal latency to radiant heat after OR486, selective βAR antagonists ([2]; i.p. 10 min prior to OR486, ICI118,551 5.0 mg/kg, SR59230A 5 or 50 mg/kg, betaxolol 0.1, 1.0, 10 mg/kg, relative to vehicle prior to OR486): failed to alter; paw withdrawal frequency to mechanical stimuli after OR486, selective βAR antagonists [2, 5]: failed to alter; paw withdrawal threshold to mechanical stimuli after OR486, selective βAR antagonists [2, 5]: failed to alter"
Cc1ccc(N(CC2=NCCN2)c2cccc(O)c2)cc1 [phentolamine],,,,,,failed to affect,failed to affect,failed to affect,failed to block,
CC(C)NCC(O)COc1cccc2ccccc12 (stereo not shown) [propranolol],,,,,,failed to affect,failed to affect,failed to affect,completely blocks,"paw withdrawal frequency to mechanical stimuli after OR486 [2, 6]: normalized; paw withdrawal latency to radiant heat after OR486 [2, 6]: normalized; paw withdrawal threshold to mechanical stimuli after OR486 [2, 6]: normalized; plasma levels of IL-1β after OR486 [3, 7]: normalized plasma levels; also recorded: decreased plasma levels; plasma levels of IL-6 after OR486 [3, 7]: normalized plasma levels; also recorded: decreased plasma levels; plasma levels of TNFα after OR486 [3, 7]: normalized plasma levels; also recorded: decreased plasma levels"
O=C(CCCN1CCC2(CC1)C(=O)NCN2c1ccccc1)c1ccc(F)cc1 [spiperone],,,,,,failed to affect,failed to affect,failed to affect,failed to block,
carrageenan,increased paw withdrawal frequency,decreased paw withdrawal latency,decreased paw withdrawal threshold,elevated levels,elevated levels,,,,,plasma levels of IL-1β [3]: elevated levels
